The test concerns E. coli sepsis in dogs. In words: Chitobiose given after 3.5 h of E. coli sepsis, reversal of myocardial depression. Set-up: HR: unit not given here. Particulars: for HR / Pwp: mean±SD. In kind it is in vivo, dog. How it is done:
The E. coli model used in this study was identical to that previously described. Sepsis was induced by the intravenous infusion of 10^10 colony forming units of live E. coli (designation 0111:B4). The bacteria were suspended in normal saline infusion, which was given over 0.5 h. A constant infusion of approximately 5×10^9 colony forming units/h of E. coli was then maintained for the remainder of the experiment.
During the experiment, the animals (16-21) kg were anesthetized with thiopental sodium (20 mg/kg iv) and constantly infused with sufentanil citrate (1 ug/min) and midazolam (5 ug/kg/min). The rates were adjusted to abolish the palpebral reflex. The animals were placed in the supine position; the trachea was intubated with an endotracheal tube; and the lungs were mechanically ventilated at a tidal volume of 20 ml/kg. The ventilator rate was initially set to maintain blood pH at approximately 7.35 and was changed as necessary over the course of the experiment to maintain blood pH as normal as possible. 100% oxygen was inspired to prevent hypoxemia from contributing to the results, and arterial oxygen tension was maintained greater than 500 mmHg over the course of the study in all experiments.
A thermister tipped catheter was advanced from the jugular vein into the pulmonary artery to measure pulmonary arterial pressure, mean pulmonary capillary wedge pressure (Pwp), right atrial pressure, thermodilution cardiac output (CO, Columbus Instruments, Ohio), and to obtain mixed venous oxygen blood samples. A polyethylene catheter was placed into the femoral artery to measure mean blood pressure (MAP) and to withdraw samples of blood for blood gas analysis. All catheters were connected to transducers (Cobe Laboratories) and were referenced relative to the left atrium. All transducers were connected to a chart recorder (Astro-Med, W Warwick, R.I.). Heart rate (HR) was measured from the recorder tracing. Stroke volume (SV) was calculated as CO/heart rate. Stroke work (SW) was calculated from SV×(MAP-Pwp).
After baseline measurements were obtained, bacteria were infused over a six hour period. Chitobiose was infused at 3.5 hours post sepsis after myocardial depression had already developed and was administered over a 0.5 h period. The dose used was 1000 mg (40 mg/kg) in which the drug was mixed in 100 ml D5W. Based on preliminary calculations, this dose could achieve an approximate plasma concentration of 0.5×10^−4 M. 100 mg/hr of chitobiose (5 mg/kg) mixed in 50 ml of D5W was then infused over the remaining course of the experiment. Measurements were obtained after 3.5 hr of sepsis, after treatment, and 1 and 2 hrs post treatment. Stroke work (SW) was the primary measurement of the myocardial contractility used in this study. Pulmonary capillary wedge pressure (Pwp) was used as an index of preload and was maintained constant between conditions at approximately 10 mmHg. Normal saline solution was given as necessary to maintain Pwp relatively constant.
Statistics included one way analysis of variance for repeated measures and Student Newman Keuls' multiple comparison test. The results are reported mean±1SD.

[1] abbreviates: post sepsis (3.5 h), before chitobiose.

Each structure is given as a SMILES string. “Also recorded” adds a separate entry of the source.

Consider one compound from patent US7402575B2, “Methods of treating inflammation” (priority 2003, dated 2008).

As to `CC(=O)N[C@H]1[C@H](O[C@H]2[C@H](O)[C@@H](NC(C)=O)C(O)O[C@@H]2CO)O[C@H](CO)[C@@H](O)[C@@H]1O` (stereo partly shown) [chitobiose, N,N′ diacetylglucosamine], the “Stroke work post treatment vs 3.5 hrs postsepsis” value (1 and 2 hrs post treatment) was “significant increase in stroke-work at 1 and 2 hrs post treatment; also recorded: increased after chitobiose treatment”. In addition, the HR is, setting by setting: (1 hr post treatment) 86±20; (2 hrs post treatment) 87±12; (after treatment) 91±25; (baseline) 48±9; under setting [1], 98±24. In addition, the Pwp worked out at 9.5±1.2 mmHg (1 hr post treatment); 9.9±0.9 mmHg (2 hrs post treatment); 10±0.8 mmHg (baseline); 9.6±0.8 mmHg under setting [1]; 10.4±0.5 (post treatment). For the setting “chitobiose 1000 mg over 0.5 h at 3.5 h post sepsis, then 100 mg/hr, 4 dogs”, the “Mean arterial pressure after treatment vs 3.5 hrs postsepsis” value is “significant increase in mean arterial pressure after treatment; also recorded: increased after treatment with chitobiose”. The “Myocardial depression already developed in sepsis” value (chitobiose administered after 3.5 hr of sepsis) is listed as “reversal of the myocardial depression observed”. Moreover, the “Cardiac output vs baseline” value (dog, in vivo) is “higher at the different conditions as compared with baseline”. In addition, the “Stroke work at the post treatment conditions vs baseline” value (dog, in vivo) is listed as “not different from that found at baseline”. The “Stroke-volume among the treatment conditions” value (dog, in vivo) is “did not reach statistical significance”.
